Reference: ChEMBL document CHEMBL4190383, “Hit discovery of Mycobacterium tuberculosis inosine 5'-monophosphate dehydrogenase, GuaB2, inhibitors” (Bioorg Med Chem Lett, 2018)
In brackets after ≈: the same amount, converted by molar mass.

Legend:
[1] = test system: Mycobacterium tuberculosis; experiment: Antimicrobial activity against Mycobacterium tuberculosis H37Rv by alamar blue assay; assay type: functional
[2] = test system: Mycobacterium tuberculosis; experiment: Antimicrobial activity against Mycobacterium tuberculosis SRMV2.6 H37Rv by alamar blue assay; assay type: functional
[3] = test system: Mycobacterium tuberculosis; experiment: Inhibition of Mycobacterium tuberculosis GuaB2 at 50 uM
[4] = molecular target: Inosine-5'-monophosphate dehydrogenase 2 (Homo sapiens) (UniProt P12268); experiment: Inhibition of human IMPDH2 at 10 uM
[5] = Inhibition of Mycobacterium tuberculosis GuaB2
[6] = Inhibition of Mycobacterium tuberculosis GuaB2 expressed in Escherichia coli BL21(DE3) using [2-2H]-IMP or [2-1H]-IMP and NAD+ incubated for 2 hrs by 1H NMR method
[7] = Octanol/water partition coefficient , logP of the compound; assay type: physicochemical
Staphylococcus aureus = experiment: Growth inhibition of methicillin-resistant Staphylococcus aureus at 32 ug/ml; assay type: functional; conditions: read-out: GI
Escherichia coli = experiment: Growth inhibition of Escherichia coli at 32 ug/ml; assay type: functional; conditions: read-out: GI
Klebsiella pneumoniae = experiment: Growth inhibition of Klebsiella pneumoniae at 32 ug/ml; assay type: functional; conditions: read-out: GI
Pseudomonas aeruginosa = experiment: Growth inhibition of Pseudomonas aeruginosa at 32 ug/ml; assay type: functional; conditions: read-out: GI
Acinetobacter baumannii = experiment: Growth inhibition of Acinetobacter baumannii at 32 ug/ml; assay type: functional; conditions: read-out: GI
Candida albicans = experiment: Growth inhibition of Candida albicans at 32 ug/ml; assay type: functional; conditions: read-out: GI
Cryptococcus neoformans = experiment: Growth inhibition of Cryptococcus neoformans var. grubii at 32 ug/ml; assay type: functional; conditions: read-out: GI

Inosine-5'-monophosphate dehydrogenase 2 (Homo sapiens), sequence (P12268 2-514 limits assumed): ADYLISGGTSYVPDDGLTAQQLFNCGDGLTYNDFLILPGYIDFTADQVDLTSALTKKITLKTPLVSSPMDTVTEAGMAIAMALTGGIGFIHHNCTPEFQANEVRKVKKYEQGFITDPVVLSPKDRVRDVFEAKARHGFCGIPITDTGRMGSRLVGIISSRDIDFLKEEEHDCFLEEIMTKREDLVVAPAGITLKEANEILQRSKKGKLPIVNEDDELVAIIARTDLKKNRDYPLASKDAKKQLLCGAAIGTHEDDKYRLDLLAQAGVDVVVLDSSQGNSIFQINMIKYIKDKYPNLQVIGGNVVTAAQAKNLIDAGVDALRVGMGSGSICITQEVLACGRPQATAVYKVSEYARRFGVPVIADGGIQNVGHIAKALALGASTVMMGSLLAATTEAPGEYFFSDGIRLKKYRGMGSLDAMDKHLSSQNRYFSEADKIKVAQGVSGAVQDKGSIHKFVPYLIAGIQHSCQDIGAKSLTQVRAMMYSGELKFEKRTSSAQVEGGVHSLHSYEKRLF

Row | SMILES | MIC90 [1] | further results
1 | COc1cc(NC(=O)Nn2c(C)nc3sccc3c2=O)cc(OC)c1 | > 100 µM | 
2 | O=C(O)CCC(=O)NCC1(N2CCOCC2)CCCCCC1 | > 100 µM | 
3 | Cc1ccc(NC(=O)Nn2c(C)nc3sccc3c2=O)cc1Cl | > 100 µM | 
4 | CC(C(=O)Nc1ccc2c(c1)COC2=O)c1ccc(-c2ccccc2)c(F)c1 (stereo not given) | > 100 µM | 
5 | O=C(COc1cc(Cl)ccc1Oc1ccc(Cl)cc1Cl)Nc1ccc2c(c1)COC2=O | > 100 µM | 
6 | COc1ccc2[nH]c(S(=O)(=O)Cc3ncc(C)c(OC)c3C)nc2c1 [OMEPRAZOLE SULFONE] | > 100 µM | 
7 | COc1ccc(-c2ccc(NC(=O)CCC(=O)O)cc2)cn1 | > 100 µM | 
8 | CC(=O)c1ccc(OCC(=O)Nn2c(C)nc3sccc3c2=O)cc1 | > 100 µM | 
9 | COC(=O)c1ccc(OCC(=O)Nc2ccc3c(c2)COC3=O)cc1 | > 100 µM | 
10 | O=C(O)CNC(=O)[C@@H]1C[C@H]1c1ccccc1 | > 100 µM | 
11 | O=C(CNc1ccc(F)cc1)Nc1ccc2c(c1)COC2=O | > 100 µM | 
12 | COc1ccc(NC(=O)Nc2ccc(-c3cnco3)cc2)cc1 | > 100 µM | 
13 | O=C(COc1ccc(C(=O)/C=C/c2ccc([N+](=O)[O-])cc2)cc1)Nc1ccc2c(c1)COC2=O | > 100 µM | 
14 | CCOC(=O)C1CCN(CC(=O)Nc2ccc3c(c2)COC3=O)CC1 | > 100 µM | 
15 | N#Cc1ccc(Cn2nncc2COc2ccc3ccccc3c2)cc1 | > 100 µM | 
16 | O=C(O)/C=C\C(=O)NCc1ccccc1 | > 100 µM | 
17 | COc1ccc(NC(=O)Nn2c(C)nc3ccsc3c2=O)cc1 | > 100 µM | 
18 | COc1cc(-c2oc3ccccc3c(=O)c2OCC(=O)Nc2ccc3c(c2)COC3=O)cc(OC)c1OC | > 100 µM | 
19 | COc1cccc(Cn2nncc2COc2ccc3ccccc3c2)c1 | 50 µM (≈ 17.3 µg/mL) | MIC90 [2]: > 100 µM; inhibition [3]: 52.4%; inhibition [4]: 24.9%

Row | SMILES | MIC90 [1] | further results
20 | COc1cc(/C=C/C(=O)c2cccc(OCC(=O)Nc3ccc4c(c3)COC4=O)c2)cc(OC)c1OC | > 100 µM | 
21 | Cc1ccc2nc(NC(=O)CCC(=O)O)sc2c1 | > 100 µM | 
22 | O=C(O)/C=C\C(=O)NC12CC3CC(CC(C3)C1)C2 | > 100 µM | 
23 | N#Cc1ccc(Cn2nncc2COc2cccc3ccccc23)cc1 | 100 µM (≈ 34 µg/mL) | MIC90 [2]: > 100 µM; inhibition [3]: 43.5%; IC50 [5]: 175 µM; inhibition [4]: 14.8%
24 | O=C(Cn1c(-c2ccncc2)nc2cc(Br)cnc21)Nc1cccc2ccccc12 | > 100 µM | 
25 | COc1ccccc1NC(=O)Nn1c(C)nc2sccc2c1=O | > 100 µM | 
26 | CC1CC(NS(=O)(=O)c2ccc(NC(=O)CCC(=O)O)cc2)=NO1 (stereo not given) | > 100 µM | 
27 | Cc1nnc(-c2ccc(OCc3cnnn3Cc3ccc(Cl)cc3Cl)cc2)o1 | > 100 µM | 
28 | COc1c(C)c2c(c(O)c1C/C=C(\C)CCC(=O)N[C@@H](C)c1ccccc1)C(=O)OC2 | > 100 µM | 
29 | Cc1ccc(CNC(=O)/C=C\C(=O)O)cc1 | > 100 µM | 
30 | Cc1nc2sccc2c(=O)n1NC(=O)/C=C/c1ccccc1 | > 100 µM | 
31 | Cc1nc2sccc2c(=O)n1NC(=O)Nc1ccc2c(c1)OCO2 | > 100 µM | 
32 | Clc1ccc(Cn2nncc2COc2ccc3ccccc3c2)cc1 | > 100 µM | 
33 | Clc1cccc(Cn2nncc2COc2ccc3ccccc3c2)c1 | > 100 µM | 
34 | Cc1nc2sccc2c(=O)n1NC(=O)Nc1cccc([N+](=O)[O-])c1 | > 100 µM | 
35 | COc1cccc(NC(=O)Nn2c(C)nc3ccsc3c2=O)c1 | > 100 µM | 
36 | O=C(Cn1c(-c2cscn2)nc2ccccc21)c1ccc(Br)cc1 |  | Ki [6]: 0.55 µM
37 | Cc1nnc(-c2ccc(OCc3cnnn3Cc3ccc(-c4ccccc4)cc3)cc2)o1 | 100 µM (≈ 42.3 µg/mL) | MIC90 [2]: 100 µM (≈ 42.3 µg/mL); inhibition [3]: 72.6%; logP [7]: > 4.5; inhibition [4]: 0.1%; inhibition of growth at 32 µg/mL (Staphylococcus aureus): 14%; inhibition of growth at 32 µg/mL (Escherichia coli): -7.2%; inhibition of growth at 32 µg/mL (Klebsiella pneumoniae): 2.97%; inhibition of growth at 32 µg/mL (Pseudomonas aeruginosa): 7.93%; inhibition of growth at 32 µg/mL (Acinetobacter baumannii): -14.1%; inhibition of growth at 32 µg/mL (Candida albicans): -0.24%; inhibition of growth at 32 µg/mL (Cryptococcus neoformans): -70.2%
